Experimental data from patent US4622321A, “Oxadiazolylimidazobenzodiazepine, compositions, and method” (AS Ferrosan, priority 1985, dated 1986).

Assays:
[1] = system: pentylenetetrazol-induced clonic convulsions in mice; assay: Pentazol clonic convulsions in mice, i.p. (Procedure 400); format: in vivo; settings: for ED50: Mus musculus, ip, i.p. 30 min before 150 mg/kg pentylenetetrazol s.c., seizures inhibited in 50% of the animals, read-out: ED50, activity against pentazol induced convulsions, clonic
Method: II. Pentazol clonic conv. mice (i.p.) (Procedure 400)
(§1) Pentylenetetrazol induces clonic and tonic convulsions in mice at doses of 60-120 mg/kg s.c. The mechanism is unknown but seems to be due to some effects through the GABA receptor/benzodiazepine receptor/chloride ionophore complex. Antagonism of convulsions induced by maximal doses of pentylenetetrazol is considered predictive for drugs effective against petit mal epilepsia and anxiety.
150 mg/kg pentylenetetrazol dissolved in 0.9% NaCl is given by the subcutaneous route in volumes of 15 ml/kg to male or female NMRI mice weighing 20-25 g 30 min after an intraperitoneal injection of a test compound.
The ED50 value is calculated as the dose in μg/kg at which seizures are inhibited in 50% of the animals using a computer program based on the method of Litchfield and Wilcoxon (1949).

[2] = system: pentylenetetrazol-induced tonic convulsions in mice; assay: Pentazol tonic convulsions in mice, i.p. (Procedure 401); format: in vivo; settings: for ED50: Mus musculus, ip, i.p. 30 min before 150 mg/kg pentylenetetrazol s.c., seizures inhibited in 50% of the animals, read-out: ED50, activity against pentazol induced convulsions, tonic
Method: III. Pentazol tonic conv. mice i.p. (Procedure 401)
as §1, with “seem” for “seems”
150 mg/kg pentylenetetrazol (Pentazol, Sigma) dissolved in 0.9% NaCl is given by the subcutaneous route in volumes of 15 ml/kg to male or female NMRI mice weighing 20-25 g 30 min after an intraperitoneal injection of a test compound.
The ED50 value is calculated as the dose in μg/kg where seizures are inhibited in 50% of the animals using a computer program based on the method of Litchfield and Wilcoxon (1949).

[3] = system: benzodiazepine receptors; assay: In vivo inhibition of 3H-flunitrazepam binding to mouse forebrain membranes (Procedure 130); design: species or system mice; settings: for ED50 binding in vivo: i.p. 15 min before 3H-FNM i.v., dose which inhibits 50% of specific 3H-FNM binding, mouse forebrain
Method: I. In vivo inhibition of ^3 H-flunitrazepam binding to mouse forebrain membranes by test substances administered intraperitoneally. (Procedure 130)
Twenty minutes after a dose of ^3 H-flunitrazepam (^3 H-FNM) (200 μCi/kg, i.v.) the amount of specific ^3 H-FNM binding to brain benzodiazepine receptors has reached its maximal value.
Suspensions of test substances (2 mg/ml) are prepared in 5% Duphasol-X* by sonification for 10 min using a Branson B15 microtip ultrasonifier (setting 7). Groups of three mice (female, NMR, 18-22 gram) are injected with the test substance at 100 mg/kg intraperitoneally. Fifteen minutes after test substance administration the mice are challenged with 4 μCi intraveneously of ^3 H-FNM (70-90 Ci/mole) in 200 μl physiological saline. Twenty minutes after ^3 H-FNM administration mice are sacrificed by decapitation, the forebrains rapidly excised (within 30 sec) and homogenized in 12 ml of icecold 25 mM KH2 PO4, pH 7.1, using an Ultra-Turrax homogenizer fitted with an N 10 shaft. Two aliquots of 1 ml are immediately filtered through Whatman GF/C glassfibre filters and washed with 2×5 ml of the above mentioned buffer. The amounts of radioactivity on the filters are determined by conventional scintillation counting. One group of untreated mice serves as controls. One to three mice are injected with 25 mg/kg clonazepam i.p. 30 minutes before ^3 H-FNM to determine the amount of non-specific ^3 H-FNM binding, which should be between 8-15% of total binding.
*(™Duphar; castor-oil-ethylene oxide derivative for emulsifying and solubilizing oil and other water-insoluble substances)
When doses of 100 mg/kg inhibit more than 50% of specific ^3 H-flunitrazepam binding; test substances are administered in doses, which are factors of 3.16 times lower than 100 mg/kg.
The ED50 for a test substance is defined as that dose which inhibits 50% of specific ^3 H-FNM binding. Specific binding is the amount of binding in controls minus the amount binding in clonazepam-treated mice.
The ED50 value is determined from dose response curves. If only one dose of test substance is administered the ED50 value is calculated as follows, provided that the inhibition of specific binding is within the range of 25-75%: [formula] where Co is specific binding in controls and Cx is specific binding in mice treated with test substance.

[4] = compared to analogue (D), Roche EP 150,040 ex. 44

SMILES | ED50 [1] [mg/kg] | ED50 [2] [mg/kg] | ED50 binding in vivo [3] | times as active in protecting against pentetrazol induced clonic convulsions [1, 4] | times as active in protecting against pentetrazol induced clonic convulsions ([1]; compared to compound E) [times] | times as active in protecting against pentetrazol induced tonic convulsions [2, 4] [times] | times as active in protecting against pentetrazol induced tonic convulsions ([2]; compared to compound E) [times] | times as active in binding affinity for the benzodiazepine receptor [3, 4] | times more as active in binding affinity for the benzodiazepine receptor ([3]; compared to compound E) [times]
CN1Cc2c(-c3nc(C4CC4)no3)ncn2-c2ccccc2C1=O [D] | 2.7 | 0.3 | 340 µg/kg |  |  |  |  |  | 
CCc1nc(-c2ncn3c2CN(C)C(=O)c2ccccc2-3)no1 [B] | 27 | 1.3 | 1,800 μg/kg |  |  |  |  |  | 
CC(C)c1noc(-c2ncn3c2CN(C)C(=O)c2ccccc2-3)n1 [C] | 3 | 1.7 | 600 µg/kg |  |  |  |  |  | 
O=C1c2c(Cl)cccc2-n2cnc(-c3noc(C4CC4)n3)c2C2CCCN12 (stereo not drawn) [E] | 13 | 1 | 960 µg/kg |  |  |  |  |  | 
CN1Cc2c(-c3noc(C4CC4)n3)ncn2-c2ccccc2C1=O [A, 3-(5-cyclopropyl-1,2,4-oxadiazol-3-yl)-5,6-dihydro-5-methyl-6-oxo-4H-imidazo[1,5-a][1,4]benzodiazepine] | 0.07 | 0.03 | 80 µg/kg | approximately 40 times | 185 | 10 | 33 | more than 4 times | 12
